Values joined by “and” are separate entries in the source; they are usually repeats but may differ in a detail not shown here. Equal values may be shown once.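 Values below derive from 48-hour exposures of cells grown in 96-well plates, with endpoints linearly interpolated between the two concentrations bracketing the appropriate inhibition level. The concentration for 50% growth inhibition is given as GI50. The concentration for full growth arrest is given as TGI.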 Where a SMILES comes first, the peptide text is derived from it. The star is where a group is joined. Cbz = O=C(OCc1ccccc1)*; Boc = CC(C)(C)OC(=O)*; OSu = O=C1CCC(=O)N1O*; Bn = c1ccc(C*)cc1
Legend:
Test in all cases: NCI tumour cell line growth inhibition, 48 h
CCRF-CEM leukemia = system: CCRF-CEM leukemia
DLD-1 colon = system: DLD-1 colon
DMS 114 small cell lung = system: DMS 114 small cell lung
DMS 273 small cell lung = system: DMS 273 small cell lung
KM20L2 colon = system: KM20L2 colon
LXFL 529 NSCLC = system: LXFL 529 NSCLC
M19-MEL melanoma = system: M19-MEL melanoma
RXF-631 renal = system: RXF-631 renal
SNB-78 CNS = system: SNB-78 CNS
DU-145 prostate = system: DU-145 prostate
HOP-18 NSCLC = system: HOP-18 NSCLC
XF 498 CNS = system: XF 498 CNS

Compound	TGI (CCRF-CEM leukemia)	TGI (DU-145 prostate) [µM]	other results
CC(C)=CC(=O)c1c(C(=O)O)nc2ccccc2[n+]1[O-]	> 100 µM		TGI (DLD-1 colon): > 100 µM; TGI (DMS 114 small cell lung): > 100 µM; TGI (DMS 273 small cell lung): > 100 µM; TGI (KM20L2 colon): > 100 µM; TGI (LXFL 529 NSCLC): > 100 µM; TGI (M19-MEL melanoma): > 100 µM; TGI (RXF-631 renal): > 100 µM; TGI (SNB-78 CNS): > 100 µM
COc1ccc2c(c1)CC[C@@H]1C2CC[C@]2(C)C(=C=CP(=O)(O)O)CCC12 (stereo partly specified)		> 100	
COc1cccc(CCCNC(=O)Cc2ccccc2CO)c1	> 100 µM	> 100	
COC(=O)c1ccccc1C1CN=NC12Cc1c(C)ccc(C)c1C2=O (stereo unspecified)	> 100 µM	> 100	
Cc1cc(=O)n2nc(CSc3nnc(Sc4cc(O)ccc4O)s3)sc2n1	48.6 µM	> 100	
COc1cccc(N=NN2CCCC2)c1	> 100 µM	> 100	
O=c1c2cc(I)ccc2nc(-c2cccs2)n1O	95.2 µM	96.9	
Cc1ccc(NCCN(C)C)c2c(=O)c3cc(O)ccc3sc12	5.7 µM	15.6	TGI (DLD-1 colon): 19.9 µM; TGI (DMS 114 small cell lung): 28 µM; TGI (DMS 273 small cell lung): 15.9 µM; TGI (HOP-18 NSCLC): 15.3 µM; TGI (KM20L2 colon): 22 µM; TGI (LXFL 529 NSCLC): 21.7 µM; TGI (M19-MEL melanoma): 23.1 µM; TGI (SNB-78 CNS): 33.7 µM; TGI (XF 498 CNS): 17.2 µM
CC(C)=CCCC1(C)C2COC(=O)C21 (stereo unspecified)	> 100 µM and 52.6 µM	> 100	GI50 (CCRF-CEM leukemia): 39.3 µM and 12.3 µM
C=CCOC(=O)N1c2ccc(O)cc2[C@@]23O[C@@]24[C@@H]1C#C/C=C\C#C[C@]3(O)C(=O)C[C@@H]4C	> 100 µM	> 100	
CC(C)(C)OC(=O)NC(Cc1ccc(OCc2ccccc2)cc1)C(=O)NC(CCCCNC(=O)OCc1ccccc1)C(=O)NC(CCCCNC(=O)OCc1ccccc1)C(=O)ON1C(=O)CCC1=O (stereo unspecified) (Boc-Tyr(Bn)-Lys(Cbz)-Lys(Cbz)-OSu; configuration not given here)	> 100 µM	> 100	
CC(NNC(=O)c1ccncc1)c1ccc(Cl)cc1Cl (stereo unspecified)	> 100 µM	> 100	
C/C(Nc1ccc(Cl)cc1)=C1/CCOC1=O	> 100 µM	> 100	
Cc1cc2occ(S(=O)(=O)NC(=O)Nc3ccc(Cl)cc3)c(=O)c2c(=O)o1	> 100 µM	> 100	
CCCCCCCCCCCCC1N=C(N)NC2(CCCO2)C1C(=O)OC (stereo unspecified)	5.83 µM	33.2	
NC(N)=NCCCC(NC(=O)c1c2ccccc2nc2ccccc12)C(=O)O (stereo unspecified)	> 100 µM	> 100	
CCOC(=O)c1c(-c2ccccc2)c(C)cn1C	> 10 µM	> 10	
Cc1ccc(NC(=O)C(=O)Cc2cccc[n+]2[O-])cc1C	> 100 µM		TGI (DLD-1 colon): > 100 µM; TGI (DMS 114 small cell lung): > 100 µM; TGI (HOP-18 NSCLC): > 100 µM; TGI (KM20L2 colon): > 100 µM; TGI (LXFL 529 NSCLC): > 100 µM; TGI (M19-MEL melanoma): > 100 µM; TGI (SNB-78 CNS): > 100 µM; TGI (XF 498 CNS): > 100 µM
C#CCOC(=O)C(=[N+]=[N-])C(=O)CC(C)C	> 10 µM	> 10	
N#CC(NNC(=O)c1ccccc1O)c1c(O)ccc2ccccc12 (stereo unspecified)	> 90.9 µM	18.4	TGI (DLD-1 colon): > 100 µM; TGI (DMS 114 small cell lung): 5.14 µM; TGI (DMS 273 small cell lung): 14.2 µM; TGI (HOP-18 NSCLC): 8.2 µM; TGI (KM20L2 colon): 68 µM; TGI (LXFL 529 NSCLC): 33.4 µM; TGI (M19-MEL melanoma): 9.62 µM; TGI (SNB-78 CNS): > 100 µM

Compound	TGI (CCRF-CEM leukemia)	TGI (DU-145 prostate) [µM]	other results
Cc1nc(Cc2n[nH]c(C)n2)n[nH]1	> 100 µM	> 100	
CC1CCCN1CCCOC(=O)c1ccc(OC2C=CCCC2)cc1 (stereo unspecified)	66.7 µM	> 100	
COc1ccc(C23OCC(Cc4cc(OC)c(OC)cc42)C3CO)cc1OC (stereo unspecified)		> 100	
CCC(=C/[C@H](C)C/C=C/C(C)=C/[C@@H](C)C(=O)[C@@H](C)[C@H](O)[C@@H](C)CC)/C=C/[C@H]1CC=CC(=O)O1	0.179 µM	< 0.0012	
COC(=O)[C@@H]1COC(=O)N1	> 100 µM	> 100	
Cc1cc(C)n2c(nc3ccccc32)c1C#N	> 100 µM	> 100	
c1cc2c(cc1[C@@H]1OC[C@@H]3[C@H]1CO[C@H]3c1ccc3c(c1)OCO3)OCO2	> 100 µM	> 100	
CC(C)(CN1CCCCC1)C(=O)CC(SCCS(=O)(=O)O)c1ccc(Cl)cc1 (stereo unspecified)	6.04 µM	21.7	
O=C1/C(=C/c2ccc(Cl)cc2)Oc2ccccc21	> 100 µM	40.3	
S=c1[nH]n2c(COc3cc(Cl)c(OCc4nnc5sc(=S)[nH]n45)cc3Cl)nnc2s1		> 100	
S=c1[nH]nc(CCCCCCCCc2n[nH]c(=S)o2)o1	> 100 µM	> 100	
O=C(O)C1(C(O)c2ccccc2)SCCCS1 (stereo unspecified)	> 10 µM	> 10	
CCc1cc2c(c3c1CCCC3=O)CC1(C2)Cc2cc(CC)c3c(c2C1)C(=O)CCC3	> 100 µM	> 100	
O=CC1=CCC2c3[nH]c4ccccc4c3CCN2C1 (stereo unspecified)	> 396 µM		TGI (DLD-1 colon): 226 µM; TGI (DMS 114 small cell lung): 266 µM; TGI (DMS 273 small cell lung): 212 µM; TGI (HOP-18 NSCLC): > 396 µM; TGI (KM20L2 colon): > 396 µM; TGI (LXFL 529 NSCLC): 137 µM; TGI (M19-MEL melanoma): 206 µM; TGI (XF 498 CNS): 213 µM
CCCCCCCc1ccc(-c2nnc(N=Nc3ccc(OCCCCC)cc3)s2)s1	> 100 µM	> 100	
CCOC(=O)C1C(c2ccc(OC)cc2)c2c([nH]n(-c3ccccc3)c2=O)CC1(C)O (stereo unspecified)	35.6 µM	> 100	
CC(=O)C(C(C)=O)[C@H]1OC(C)(C)O[C@H]1[C@H]1COC(C)(C)O1	> 100 µM	> 100	
Clc1ccc(C2=NCON=C2c2ccc(Cl)cc2)cc1	53.1 µM	> 100	
Cc1cc(C)nc(NS(=O)(=O)c2ccc(Nc3c4ccccc4nc4ccc(C(=O)Nc5ccc(S(=O)(=O)N=C(N)N)cc5)cc34)cc2)n1	> 100 µM	> 100	
O=C(O)CCC1NC(/C(=C/c2ccccc2O)NC(=O)c2ccccc2)OC1=O (stereo unspecified)	> 100 µM	> 100	
